Measurements as given in ChEMBL document CHEMBL1133657, “Synthesis and pharmacological characterization of [(125)I]iodomethyllycaconitine ([(125)I]iodo-MLA). A new ligand for the alpha(7) nicotinic acetylcholine receptor” (J Med Chem, 2000).

What was measured:
Rattus norvegicus [1] = species on record: Rattus norvegicus; experiment: Bmax value(fmol/mg )was evaluated in rat brain using [125I]iodo-MLA
Rattus norvegicus [2] = species on record: Rattus norvegicus; experiment: Bmax value(fmol/mg protein) was evaluated in rat brain using [3H]MLA
Rattus norvegicus [3] = species on record: Rattus norvegicus; experiment: Affinity constant Kd(nM) in rat brain cerebral cortex homogenates.

SMILES	Bmax (Rattus norvegicus [1])	Bmax (Rattus norvegicus [2])	Kd (Rattus norvegicus [3])
CCN1C[C@]2(COC(=O)c3cc([125I])ccc3N3C(=O)C[C@H](C)C3=O)CC[C@H](OC)[C@@]34[C@@H]5C[C@H]6[C@H](OC)[C@@H]5[C@](O)(C[C@@H]6OC)[C@](O)([C@@H](OC)[C@H]23)[C@@H]14	68 fmol/mg	–	–
[3H]c1cccc(N2C(=O)C[C@H](C)C2=O)c1C(=O)OC[C@@]12CC[C@H](OC)[C@@]34[C@@H]5C[C@H]6[C@H](OC)[C@@H]5[C@](O)(C[C@@H]6OC)[C@](O)([C@@H](OC)[C@H]13)[C@H]4N(CC)C2 [METHYLLYCACONITINE[3H] MLA]	–	65 fmol/mg	1.9 nM
